Columns and labels:
[1] = test system: mice in a model of Alzheimer's disease; assay: Eight-arm maze behavioral experiment in D-galactose/AlCl3 mouse model of Alzheimer's disease; assay type: in vivo, Kunming mice; conditions: 8 weeks, x ± s, n = 10
Excerpt: A food providing device is arranged at an end of each arm of an eight-arm maze. The spatial memory ability of an experimental animal may be reflected according to the strategy of analyzing feeding of an animal, namely the parameters of the times, time, correct times, wrong times, routes and the like of entering each arm. In contrast, the eight-arm maze is simple, convenient and feasible to operate, can distinguish short-term working memory from long-term reference memory, and is widely used for evaluating a learning and memory cognitive experiment. The main analysis indexes of the eight-arm maze are name, grouping, working memory error latency, reference memory error latency, total correct times, total arm entering times, working memory error times, reference memory error times, correct latency, correct rate, working memory error rate, reference memory error rate, correct times before first error, test time, a track graph and the like. […] 100 SPF-grade Kunming mice, each half male and female, weighed 20-22 g, were provided by the Jinan Pengyue Experimental Animal Breeding Co., Ltd with the animal certificate number: SCXK(Lu)20190003. The mice were bred to freely drink and eat in an SPF-grade animal breeding room with strictly controlled environmental conditions: the temperature of 20-26° C., the humidity of 40-70%, the light and dark cycle of 12 h:12 h, and a growing and breeding feed. All mice were first trained in an eight-arm maze which was a common model for evaluating the learning and memory ability of an animal. The animals were adaptively fed for 1 week, weighed, and fasted for 24 hours. Then after each day of training, the mice were restrictively given a normal diet to maintain the body weight of the mice between 80% and 85% of that of mice fed normally. On the second day, food particles (4-5 particles each arm with the diameter of about 3-4 mm) were sprayed in each arm and a center area of the maze. Then 4 animals were placed in the center of the maze simultaneously (doors to each arm were opened). The animals were freely fed and explored for 10 min. On the third day, the training of the second day was repeated. This process allowed the animals to become familiar with the maze environment without very strong stress. On the fourth day, the animals were trained individually: one food particle was placed in each arm near an outer food box and the animals ate freely. The animals were removed after the food particles were consumed or 10 min later. On the fifth day, the food was placed in the food box and the previous day of training was repeated 2 times a day. After the sixth day, 4 arms were randomly selected and one food particle was placed in each arm; each arm door was closed and the animals were placed in the center of the maze; and after 30s, the arm door was opened, the animals moved freely in the maze and took the food particle until the animals ate the food particles of all 4 arms. If the food particles were not eaten up after 10 min, the experiment was terminated. The animals were trained twice a day with the interval of 1 h or more. […] The mice meeting the learning standard were screened, 10 of them were randomly selected as a normal group, 10 as a model group, and the others as experimental groups. Except that the mice in the normal group were intraperitoneally injected with the same amount of normal saline and intragastrically administrated with the same amount of double distilled water, the mice of the other groups were all intraperitoneally injected with D-galactose (500 mg/kg/D) (prepared with normal saline) and intragastrically administrated AlCl3 (20 mg/kg/D) (prepared with double distilled water). The mice in the experimental groups were intragastrically administrated once a day according to the grouping and administration dose and the mice in the normal group and the model group were intragastrically administrated with the same amount of purified water for 8 weeks successively. […]

[2] = test system: mice in a model of Alzheimer's disease; assay: Contents of tryptophan, L-kynurenine and 5-hydroxytryptamine in serum by high performance liquid chromatography; assay type: in vivo, Kunming mice; conditions: 8 weeks, x ± s, n = 10
Procedure: 100 SPF-grade Kunming mice, each half male and female, weighed 20-22 g, were provided by the Jinan Pengyue Experimental Animal Breeding Co., Ltd with the animal certificate number: SCXK(Lu)20190003. The mice were bred to freely drink and eat in an SPF-grade animal breeding room with strictly controlled environmental conditions: the temperature of 20-26° C., the humidity of 40-70%, the light and dark cycle of 12 h:12 h, and a growing and breeding feed. The mice meeting the learning standard were screened, 10 of them were randomly selected as a normal group, 10 as a model group, and the others as experimental groups. Except that the mice in the normal group were intraperitoneally injected with the same amount of normal saline and intragastrically administrated with the same amount of double distilled water, the mice of the other groups were all intraperitoneally injected with D-galactose (500 mg/kg/D) (prepared with normal saline) and intragastrically administrated AlCl3 (20 mg/kg/D) (prepared with double distilled water). The mice in the experimental groups were intragastrically administrated once a day according to the grouping and administration dose and the mice in the normal group and the model group were intragastrically administrated with the same amount of purified water for 8 weeks successively. The mice in the experimental groups were divided into 8 groups of low- and high-dose anhydroicaritin groups, low- and high-dose compound I groups, and composition A, B, C, and D groups with 10 mice in each group. […] After the last administration, […] of blood was taken from each eyeball of each group of the mice subjected to the eight-arm maze test and stood overnight at 4° C. in a test tube, and a supernatant was taken the following day for later use. The contents of tryptophan, L-kynurenine, and 5-hydroxytryptamine in blood serum were detected by a high performance liquid chromatography.

microglia = conditions: Alzheimer's disease inflammation model; cited from earlier work
GSK-3 = conditions: cited from earlier work
[3] = high-dose anhydroicaritin group, 21.2 mg/(kg·d) intragastric once a day
[4] = low-dose anhydroicaritin group, 3.2 mg/(kg·d) intragastric once a day
[5] = high-dose anhydroicaritin group, 21.2 mg/(kg·d) intragastric
[6] = low-dose anhydroicaritin group, 3.2 mg/(kg·d) intragastric
[7] = high-dose compound I group, 32 mg/(kg·d) intragastric once a day
[8] = low-dose compound I group, 0.6 mg/(kg·d) intragastric once a day
[9] = high-dose compound I group, 32 mg/(kg·d) intragastric
[10] = low-dose compound I group, 0.6 mg/(kg·d) intragastric

## COc1ccc(-c2oc3c(CC=C(C)C)c(O)cc(O)c3c(=O)c2O)cc1 [anhydroicaritin]
[1]; [3]
  Average exploration time (s): 189.81 ± 1.19^+ s
  Reference memory error frequency: 0.20 ± 0.04^+
  Working memory error frequency: 0.44 ± 0.06^+
[1]; [4]
  Average exploration time (s): 190.17 ± 1.18^+ s
  Reference memory error frequency: 0.21 ± 0.03^+
  Working memory error frequency: 0.45 ± 0.02^+
[2]; [5]
  5-hydroxytryptamine (μg/ml): 1.30 ± 0.07^+ μg/ml
  L-kynurenine (μg/ml): 0.33 ± 0.02^+ μg/ml
  Tryptophan (μg/ml): 17.90 ± 0.30^+ μg/ml
[2]; [6]
  5-hydroxytryptamine (μg/ml): 1.29 ± 0.05^+ μg/ml
  L-kynurenine (μg/ml): 0.33 ± 0.01^+ μg/ml
  Tryptophan (μg/ml): 17.79 ± 0.65^+ μg/ml

## N=C(N)NCCNc1nonc1/C(=N/O)Nc1ccc(F)c(Br)c1 [compound I]
[1]; [7]
  Average exploration time (s): 189.95 ± 1.04^+ s
  Reference memory error frequency: 0.21 ± 0.04^+
  Working memory error frequency: 0.44 ± 0.05^+
[1]; [8]
  Average exploration time (s): 190.20 ± 1.09^+ s
  Reference memory error frequency: 0.23 ± 0.05^+
  Working memory error frequency: 0.52 ± 0.03^++
[2]; [9]
  5-hydroxytryptamine (μg/ml): 1.28 ± 0.05^+ μg/ml
  L-kynurenine (μg/ml): 0.33 ± 0.01^+ μg/ml
  Tryptophan (μg/ml): 18.08 ± 0.02^+ μg/ml
[2]; [10]
  5-hydroxytryptamine (μg/ml): 1.29 ± 0.05^+ μg/ml
  L-kynurenine (μg/ml): 0.35 ± 0.03^+ μg/ml
  Tryptophan (μg/ml): 17.92 ± 0.95^+ μg/ml

## COc1ccc(-c2oc3c(CC=C(C)C)c(O)cc(O)c3c(=O)c2O)cc1 [icaritin]
microglia
  activation of microglia induced by LPS: inhibit excessive activation of microglia induced by LPS
  learning and memory ability of mice: improve the learning and memory ability of mice
GSK-3
  GSK-3 activity: inhibiting GSK-3 activity

Source: US20240382466A1, “PHARMACEUTICAL COMPOSITION FOR PREVENTING OR TREATING ALZHEIMER’S DISEASE” (priority 2021, published 2024)
